Source: EPA's ToxRefDB 2

Tests used:
rat [1] = details: Subchronic oral toxicity in rodents, sprague dawley, Feed, dose end: 13 week, group: systemic
mouse [2] = details: Carcinogenicity, cd1, Oral, Feed, dose end: 78 week, group: systemic
dog [3] = details: Subchronic oral toxicity in nonrodent, beagle, Feed, dose end: 90 day, group: systemic
rat [4] = details: Combined chronic toxicity/carcinogenicity, other, Oral, Feed, dose end: 24 month, group: systemic
dog [5] = details: Chronic toxicity, beagle, Oral, Feed, dose end: 52 week, group: systemic
mouse [6] = details: Subchronic oral toxicity in rodents, cd1, Feed, dose end: 90 day
dog [7] = details: Subchronic oral toxicity in nonrodent, beagle, Feed, dose end: 28 day, group: systemic
rat [8] = details: Multigenerational reproductive toxicity study, sprague dawley, Oral, Feed, dose end: 2 generation
rat [9] = details: Subchronic oral toxicity in rodents, sprague dawley, Feed, dose end: 13 week, group: systemic, systemic / in life observation / body weight / body weight + systemic / in life observation / body weight / body weight gain + systemic / in…
rat [10] = details: Subchronic oral toxicity in rodents, sprague dawley, Feed, dose end: 90 day, group: systemic
rat [11] = details: Prenatal developmental toxicity study, sprague dawley, Oral, Gavage/Intubation, dose end: 15 GD
rat [12] = details: Developmental neurotoxicity study; sprague dawley; Injection; Intraperitoneal; dose end: 112 PND; group: cannot be grouped; developmental / developmental malformation / bone / kinked + developmental / offspring survival late / [other] / [other] + reproductive / …
[13] = systemic / pathology microscopic / kidney / inclusion body intranuclear
[14] = systemic / pathology microscopic / kidney / inclusion body intranuclear + systemic / in life observation / body weight / body weight + …
[15] = systemic / in life observation / body weight / body weight + systemic / in life observation / body weight / body weight gain + systemic / …
[16] = systemic / pathology microscopic / bone marrow / hyperplasia
[17] = systemic / in life observation / body weight / body weight gain
[18] = systemic / in life observation / body weight / body weight gain + systemic / in life observation / body weight / body weight + systemic / in…
[19] = systemic / in life observation / clinical signs / respiration (rales)
[20] = systemic / in life observation / body weight / body weight + systemic / in life observation / body weight / body weight gain + systemic / in…
[21] = group: cholinesterase, cholinesterase / cholinesterase / cholinesterase / cholinesterase (che)
[22] = group: systemic, systemic / clinical chemistry / glucose / glucose + systemic / in life observation / body weight / body weight + systemic / in life …
[23] = systemic / in life observation / body weight / body weight gain + systemic / in life observation / food consumption / food consumption + …
[24] = group: offspring, developmental / developmental landmark / preputial separation / preputial separation + systemic / in life observation / body weight / litter…
[25] = group: parental, systemic / in life observation / body weight / body weight + systemic / in life observation / body weight / body weight gain + systemic / in…
[26] = group: reproductive, reproductive / offspring survival early / litter size / litter size
[27] = systemic / pathology microscopic / spleen / pigmentation
[28] = systemic / pathology microscopic / spleen / pigmentation + systemic / in life observation / body weight / body weight + systemic / in life …
[29] = group: developmental, developmental / developmental malformation / bone / short
[30] = group: maternal, systemic / in life observation / body weight / body weight + systemic / in life observation / body weight / body weight gain + systemic / in…

CC(=NC#N)N(C)Cc1ccc(Cl)nc1 [Acetamiprid] gave an LEL (rat [1]; [13]) of 250 mg/kg/day, an LOAEL (rat [1]; [13]) of 250 mg/kg/day and an NEL (rat [1]; [14]) of 48.9 mg/kg/day. It also gave an NOAEL (rat [1]; [14]) of 48.9 mg/kg/day, an LOAEL (mouse [2]; [15]) of 65.6 mg/kg/day and an NOAEL (mouse [2]; [15]) of 20.3 mg/kg/day. It also gave an LEL (mouse [2]; [16]) of 20.3 mg/kg/day, an NEL (mouse [2]; [16]) of under 20.3 mg/kg/day and an LOAEL (dog [3]; [17]) of 32 mg/kg/day. The NEL (dog [3]; [18]) was 14 mg/kg/day, the NOAEL (dog [3]; [18]) was 14 mg/kg/day and the LEL (dog [3]; systemic / in life observation / body weight / body weight gain + systemic / in life observation / food consumption / food consumption) was 32 mg/kg/day. For the same molecule, the LEL (rat [4]; [19]) was 7.1 mg/kg/day, the NEL (rat [4]; [19]) was under 7.1 mg/kg/day and the LOAEL (rat [4]; systemic / pathology microscopic / liver / vacuolization) was 17.5 mg/kg/day. It also gave an NOAEL (rat [4]; systemic / pathology microscopic / liver / vacuolization + systemic / in life observation / body weight / body weight + systemic / in life …) of 7.1 mg/kg/day, an LOAEL (dog [5]; systemic / in life observation / body weight / body weight + systemic / in life observation / body weight / body weight gain) of 55 mg/kg/day and an LEL (dog [5]; [20]) of 55 mg/kg/day. The NEL (dog [5]; [20]) was 20 mg/kg/day, the NOAEL (dog [5]; [20]) was 20 mg/kg/day and the LEL (mouse [6]; [21]) was 430 mg/kg/day. For the same molecule, the LOAEL (mouse [6]; [21]) was over 430 mg/kg/day, the NEL (mouse [6]; [21]) was 211 mg/kg/day and the NOAEL (mouse [6]; [21]) was at least 430 mg/kg/day. It also gave an LEL (mouse [6]; [22]) of 211 mg/kg/day, an LOAEL (mouse [6]; [22]) of 211 mg/kg/day and an NEL (mouse [6]; [22]) of 106 mg/kg/day. The NOAEL (mouse [6]; [22]) was 106 mg/kg/day, the LEL (dog [7]; [17]) was 28 mg/kg/day and the LOAEL (dog [7]; [17]) was 28 mg/kg/day. For the same molecule, the NEL (dog [7]; [23]) was 16.7 mg/kg/day, the NOAEL (dog [7]; [23]) was 16.7 mg/kg/day and the LEL (rat [8]; group: offspring, developmental / developmental landmark / preputial separation / preputial separation) was 17.9 mg/kg/day. For the same molecule, the LOAEL (rat [8]; [24]) was 51 mg/kg/day, the NEL (rat [8]; [24]) was 6.5 mg/kg/day and the NOAEL (rat [8]; [24]) was 17.9 mg/kg/day. For the same molecule, the LOAEL (rat [8]; [25]) was 51 mg/kg/day, the NEL (rat [8]; [25]) was 6.5 mg/kg/day and the NOAEL (rat [8]; [25]) was 17.9 mg/kg/day. For the same molecule, the LEL (rat [8]; group: parental, systemic / in life observation / body weight / body weight gain) was 17.9 mg/kg/day, the LEL (rat [8]; [26]) was 51 mg/kg/day and the LOAEL (rat [8]; [26]) was 51 mg/kg/day. For the same molecule, the NEL (rat [8]; [26]) was 17.9 mg/kg/day, the NOAEL (rat [8]; [26]) was 17.9 mg/kg/day and the LEL (rat [9]) was 50.8 mg/kg/day. The LOAEL (rat [9]) was 50.8 mg/kg/day, the NEL (rat [9]) was 12.4 mg/kg/day and the NOAEL (rat [9]) was 12.4 mg/kg/day. The LEL (rat [10]; [27]) was 112 mg/kg/day, the LOAEL (rat [10]; [27]) was 112 mg/kg/day and the NEL (rat [10]; [28]) was 36.5 mg/kg/day. For the same molecule, the NOAEL (rat [10]; [28]) was 36.5 mg/kg/day, the LEL (rat [11]; [29]) was 50 mg/kg/day and the LOAEL (rat [11]; [29]) was 50 mg/kg/day. It also gave an NEL (rat [11]; [29]) of 16 mg/kg/day, an NOAEL (rat [11]; [29]) of 16 mg/kg/day and an LEL (rat [11]; [30]) of 50 mg/kg/day. The LOAEL (rat [11]; [30]) was 50 mg/kg/day, the NEL (rat [11]; [30]) was 16 mg/kg/day and the NOAEL (rat [11]; [30]) was 16 mg/kg/day.
O=c1[nH]c(=O)n([C@H]2C[C@H](O)[C@@H](CO)O2)cc1Br [5-Bromo-2'-deoxyuridine] was tested, and the LEL (rat [12]) was 50 mg/kg/day, the LOAEL (rat [12]) was over 100 mg/kg/day and the NEL (rat [12]) was under 50 mg/kg/day. For the same molecule, the NOAEL (rat [12]) was at least 100 mg/kg/day.
